This is an account of results in patent US10130616B2, “Securinine and norsecurinine analogue compounds for the treatment of myeloid disorders” (Case Western Reserve University, priority 2013, dated 2018).

Data set [1] has as its system HL-60 cells. In words: Growth of HL-60 cells (IC50). The following applies: Homo sapiens, HL-60, HL-60 cells; value bracketed between tested concentrations; read-out: HL-60, IC50. It is filed as cell-based, human.
Data set [2] concerns MOLT3. The data set is described as follows: Growth inhibition of MOLT3 cells. It counts as cell-based. The following applies: Homo sapiens, MOLT-3; MOLT3 cells; read-out: MOLT3 IC50. As to the method: (§1) In certain embodiments, securinine and norsecurinine analogues were administered to cancerous cells, such as acute myeloblastic leukemia cells (e.g., MOLT3 and OCI-AML3) and growth inhibition was analyzed. The analogues were effective in inhibiting myeloid growth in addition to promoting differentiation, and provide for reduced proliferation of acute myeloblastic leukemia cells (Table 2).

In data set [3] the test system is OCI-AML3. In words: Growth inhibition of OCI-AML3 cells. It is filed as cell-based. To be noted: Homo sapiens, OCI-AML-3; OCI-AML3 cells; read-out: OCI-AML3 IC50. As to the method:
as §1

The test system of data set [4] is HL-60 leukemic cells. The following applies: HL-60 cells; from U.S. patent application Ser. No. 14/029,066; cited from earlier work.
The subject of data set [5] is CEBPβ. The following applies: cited from earlier work.
The test system of data set [6] is HL-60 leukemic cells. In words: Nitroblue Tetrazolium (NBT) reduction assay, differentiation of HL-60 leukemic cells. It is filed as cell-based, human. To be noted: Homo sapiens, HL-60, read-out: HL-60, Dif50. The source says:
In an aspect of the present disclosure, the compounds of the disclosure can be identified using a novel high-throughput screen that is biased to identify agents that have both a high potency and low toxicity in a myeloid disorder disease model, such as an animal or cell model. In some embodiments, the high-throughput screen measures the differentiation of HL-60 leukemic cells using a quantitative nitroblue tetrazolium (NBT) reduction assay. Screening HL-60 cells, human promyelocytic cells, is advantageous as they have been used extensively as a cell line to study myeloid differentiation. Though promyelocytic cells, HL-60 cells were derived from a patient with acute myeloblastic leukemia with maturation, FAB-M2.
This technique has also been widely exploited in HL-60 cells to analyze myelomonocytic differentiation.
The NBT screen works due to changes in the oxidoreductases during differentiation that lead to increases in rates of NBT reduction. NBT is reduced due to the production of superoxide that is catalyzed by an NADPH oxidase. […] NBT is reduced by superoxide from a soluble yellow compound to insoluble blue formazan granules whose formation can be monitored spectrophotometrically at 560 nm as the unreduced dye has minimal absorbance at this wavelength. A quantitative NBT reduction assay is ideal for this type of screen as it is simple, sensitive, quantitative, requires minimal cells, has been proven to have low well to well variability, and the amount of reduced NBT is proportional to the number of cells reducing the dye as well as the amount reduced by each cell.
To discover novel AML differentiation-inducing compounds a rapid high-throughput screen (HTS) was developed and optimized. The screen was designed to be biased to identify compounds that, unlike the majority of known differentiation-inducing agents, have both high potency and low toxicity. The screen measured the differentiation of HL-60 leukemic cells using a quantitative Nitroblue Tetrazolium (NBT) reduction assay, a test that is used extensively as a measure of functional myelomonocytic differentiation. The basis for the screen is unreduced NBT exists as a yellow soluble dye. Differentiated leukemic cells are capable of producing a respiratory burst that can reduce NBT into a blue insoluble compound that can be measured spectrophotometrically. This forward chemical genetics approach allowed the discovery of novel compounds that can act on targets not previously known to be “drugable.” As only live cells can reduce NBT, the screen is biased in identifying relatively nontoxic compounds.
To perform the screen, duplicate plates of HL-60 cells were cultured at a density of 5×10^4 cells/mL with 10 μM of each compound in 96 well plates for 5 days. To determine the relative capability for a compound to induce differentiation compared to known potent inducers, each plate destined for the NBT reduction assay included wells with 0.1% DMSO (vehicle control) and 1 μM ATRA. This approach eliminates any slight day to day variation in NBT reduction values and allows the discovery of compounds with similar or greater efficacy to ATRA. Differentiation was determined in the 96 well plates by incubating the cells with 1 mg/mL of NBT and 200 ng/mL of PMA as the stimulant for the respiratory burst for 35 minutes at 37° C. The reaction was then stopped with HCl and the formazan solubilized with DMSO. Finally, the reaction mixture was read spectrophotometrically at 560 nm in a plate reader.
The securinine and norsecurinine analogues were tested and evaluated on their abilities to affect differentiation and growth of HL-60 cells (Table 1).

The test system of data set [7] is cell cycle (G0/G1). To be noted: cited from earlier work.
Data set [8] has as its system CD14 and CD11b. To be noted: flow cytometry; cited from earlier work.
Data set [9] deals with 60 cancer cell lines, normal human lymphocytes, normal human bone marrow, mouse embryonic fibroblasts, and human umbilical vein endothelial cells. To be noted: 60 cancer cell lines and normal cells; cited from earlier work.
The subject of data set [10] is p21. To be noted: cited from earlier work.
Data set [11] has as its system HL-60 cells. The following applies: cited from earlier work.
Data set [12] concerns leukemic cells. The following applies: cited from earlier work.
Data set [13] deals with c-myc. The following applies: cited from earlier work.
Data set [14] concerns a variety of leukemic cell lines. The following applies: cited from earlier work.
Data set [15] deals with p44/p42 and p38. The following applies: cited from earlier work.

A word on the IC50: it is the concentration at which inhibition is half-maximal. Consider `N#Cc1ccc(C#CC2=C[C@@H]3C[C@@]4(OC(=O)C=C24)[C@H]2CCCCN32)cc1` [Compound 46], for which the IC50 was 310 to 625 nM in data set [1], 145 nM in [2] and 205 nM in [3].
In the case of `O=C1C=C2C(C#Cc3ccccc3)=C[C@@H]3C[C@@]2(O1)[C@H]1CCCCN31` [Compound 17], the IC50 is 70 to 156 nM in data set [1], 70 nM in [2] and 80 nM in [3].
The like results for `CN(C)CC#CC1=C[C@@H]2C[C@@]3(OC(=O)C=C13)[C@H]1CCCCN21` [Compound 18] were, in that order, 70 to 156 nM, 70 nM and 90 nM.
Consider `O=C1C=C2C=C[C@@H]3C[C@@]2(O1)[C@H]1CCCCN31` [Securinine, (6S,11aR,11bS)-9,10,11,11a-tetrahydro-8H-6,11b-methanofuro[2,3-c]pyrido[1,2-a]azepin-2(6H)-one], for which, in data set [4], the “cells differentiated, NBT reduction assay” value was approximately 95%. In data set [5], the CEBPβ expression result was “time-dependent upregulation”. Besides, in data set [6], the EC50 was in the range of 10 to 15 µM. Further, the cell cycle distribution result in data set [7] is “accumulation of cells in G0/G1”. Also, the “induction of cell surface markers CD14 and CD11b” value (“induction” for short) in data set [8] is “induce CD14 and CD11b”. In addition, the toxicity result in [9] was “low toxicity”. Further, the p21 protein result in data set [10] was “upregulated”. In data set [11], the “proliferation of HL-60 cells” value was “potently inhibits the proliferation of HL-60 cells”. For the same compound, in [12], the morphologic changes entry is “clear morphologic changes suggestive of monocytic differentiation”. Moreover, the c-myc expression result in [13] is “potently downregulated”. In addition, the “differentiation of leukemic cell lines” value in data set [14] is reported as “can differentiate a variety of leukemic cell lines”. The “phosphorylation of p44/p42 and p38” value in data set [15] is “induces rapid phosphorylation of p44/p42 and p38”.
Take `COc1cccc(C#CC2=C[C@@H]3C[C@@]4(OC(=O)C=C24)[C@H]2CCCCN32)c1` [Compound 47]: the IC50 in data set [1] was 310 to 625 nM; in [2], 150 nM; in [3] it was 215 nM.
For `COc1ccc(C#CC2=C[C@@H]3C[C@@]4(OC(=O)C=C24)[C@H]2CCCCN32)cc1` [Compound 29] the same measures were 39 to 78 nM, 60 nM and 80 nM.
On to `CC1=C(/C=C/C(C)=C/C=C/C(C)=C/C(=O)O)C(C)(C)CCC1` [ATRA, all-trans-retinoic acid], for which the “cells differentiated, NBT reduction assay” value in data set [4] is recorded as approximately 95%. Moreover, the “induction” value in data set [8] is on record as “primarily induces CD11b”.
Consider `C=C1CC[C@H](O)C/C1=C/C=C1\CCC[C@]2(C)[C@@H]([C@H](C)CCCC(C)C)CC[C@@H]12` [vitamin D3], for which the “induction” value in data set [8] is “induce CD14 and CD11b”.
As for `CCOC#CC1=C[C@@H]2C[C@@]3(OC(=O)C=C13)[C@H]1CCCCN21` [Compound 22], the IC50 is 310 to 625 nM in [1], 196 nM in data set [2] and 220 nM in data set [3].
Turning to `CN(C)c1ccc(C#CC2=C[C@@H]3C[C@@]4(OC(=O)C=C24)[C@H]2CCCCN32)cc1` [Compound 36], the results for the IC50 in data set [1], in [2] and in data set [3] were 156 to 310 nM, 115 nM and 105 nM, respectively.
